Reference: patent publication US9809562B2, “NAT10 modulators for treating or preventing laminopathies, aging and cancer” (CAMBRIDGE ENTERPRISE LIMITED, priority 2014, dated 2017)
Counter-ions that a name gives are not always drawn.

Columns and labels:
[1] = Compound concentration in heart and muscles; format: in vivo; conditions: mice, end of the 14 days oral treatment
Excerpt: Right panel of FIG. 24: measurement of Compound 2 concentration in heart and muscles of mice treated with the indicated dose, at the end of the 14 days treatment.

[2] = test system: Lmna^G609G/G609G mice; test: Tubulin acetylation levels in mice; format: in vivo, mouse; conditions: treated Lmna^G609G/G609G mice
Method: As Tubulin is a direct substrate of NAT10, Tubulin acetylation levels in cells derived from HGPS patients (left and bottom panel of FIG. 27) were assessed as well as in Lmna^G609G/G609G mice (right panel of FIG. 27).

[3] = test system: primary MRC5 fibroblasts aged in culture; test: Misshapen nuclei in aged MRC5 cells; format: cell-based, human; conditions: population doubling 44
Excerpt: FIG. 10: Remodelin rescues nuclear shape of aged MRC5 cells but not WS cells in a dose dependent manner. A) Misshapen nuclei observed by DAPI staining in MRC5 aged cells in culture, at population doubling 44 (PD44) were rescued by Remodelin. B) Quantification of misshapen nuclei after increasing concentrations of Remodelin (mean of three independent experiments±s.e.m.). C) DAPI staining of non-laminopathic Werner Syndrome cells (WS) showing no nuclear shape improvement upon Remodelin treatment. D) Cell Profiler quantification of misshapen nuclei (mean of three independent experiments±s.d. n>273). Scale bars: 50 μm.
U2OS and SaOS-2 osteosarcoma cells, HeLa cervical cancer cells, A431 melanoma cells, NCI-SNU5 gastric cancer cells, MRC-5 lung fibroblast cells and Werner syndrome patient-derived SV40 fibroblast cells were grown in Dulbecco's modified Eagle medium (DMEM, Sigma-Aldrich) supplemented with 10% fetal bovine serum (BioSera), 2 mM L-glutamine, 100 U per ml penicillin, 100 μg ml^−1 streptomycin. Normal skin primary fibroblasts GM03440 and Hutchinson Gilford Progeria Syndrome (HGPS) skin primary fibroblasts AG11498 and AG06297 were purchased from Coriell Cell Repositories and used between passage number 9-12 and 20-23 respectively. Cells were grown in DMEM supplemented as above. […] Cells were analysed 48 to 72 hours after transfection.

[4] = test system: normal human fibroblasts; test: Nuclear shape of normal fibroblasts, with or without FTI; format: cell-based
Excerpt: FIG. 11: Remodelin prevents FTI induced nuclear shape defects in non-progeric cells. A) Analysis of Lamin A/C processing after Remodelin or FTI treatment, showing that Remodelin is not a FTI. B) Representative pictures of Lamin A/C IF staining after the indicated treatments. Arrows indicate FTI induced misshapen nuclei in normal fibroblasts. Scale bar: 50 μm. C) Quantification of misshapen nuclei with the indicated cell lines and inhibitor treatments (means of three independent experiments±s.e.m. n>178). D) Representative pictures of DAPI staining showing effects of FTI and Remodelin on nuclear shape of U2OS cells. Scale bars: 20 μm.
U2OS and SaOS-2 osteosarcoma cells, HeLa cervical cancer cells, A431 melanoma cells, NCI-SNU5 gastric cancer cells, MRC-5 lung fibroblast cells and Werner syndrome patient-derived SV40 fibroblast cells were grown in Dulbecco's modified Eagle medium (DMEM, Sigma-Aldrich) supplemented with 10% fetal bovine serum (BioSera), 2 mM L-glutamine, 100 U per ml penicillin, 100 μg ml^−1 streptomycin. […] Cells were analysed 48 to 72 hours after transfection.
The following KAT and KDAC inhibitors were used in the nuclear shape rescue screen, incubating cells with the molecules for 16 hours: trichostatin A (1 μM), sodium butyrate (5 mM), tubacin (10 μM), SAHA (5 μM), curcumin (10 μM), garcinol (50 μM), anacardic acid (1 μM), MB-3 (5 μM), 4-(4-chlorophenyl)-2-(2-cyclopentylidenehydrazinyl)thiazole (Compound 2) (50 μM), 4-(4-chlorophenyl)-2-(2-cyclopentylidene-1-(prop-2-yn-1-yl)hydrazinyl)thiazole (Compound 3) (50 μM) and cyclopentylidene-[4-(4-cyanophenyl)thiazol-2-yl)hydrazine (Compound 1) (Remodelin) (10 to 50 μM). […] Senescence was assessed after 8 days of Remodelin treatment when cells were at Population Doubling 12, and then after several weeks of Remodelin treatment, when cells reached Population Doubling 24 using the Senescence β-Galactosidase Staining Kit #9860 from Cell Signaling. […]

[5] = test system: HGPS AG11498 cells; test: Senescence-associated β-galactosidase in HGPS cells; format: cell-based, human
Method: (§1) The following KAT and KDAC inhibitors were used in the nuclear shape rescue screen, incubating cells with the molecules for 16 hours: trichostatin A (1 μM), sodium butyrate (5 mM), tubacin (10 μM), SAHA (5 μM), curcumin (10 μM), garcinol (50 μM), anacardic acid (1 μM), MB-3 (5 μM), 4-(4-chlorophenyl)-2-(2-cyclopentylidenehydrazinyl)thiazole (Compound 2) (50 μM), 4-(4-chlorophenyl)-2-(2-cyclopentylidene-1-(prop-2-yn-1-yl)hydrazinyl)thiazole (Compound 3) (50 μM) and cyclopentylidene-[4-(4-cyanophenyl)thiazol-2-yl)hydrazine (Compound 1) (Remodelin) (10 to 50 μM). For HGPS cellular fitness assays, Remodelin was incubated at 1 μM for 1 to 10 days, renewing the medium every 3 days. For long-term senescence assay, cells were kept and passaged in medium containing 1 μM Remodelin or DMSO only for 12 population doublings. Senescence was assessed after 8 days of Remodelin treatment when cells were at Population Doubling 12, and then after several weeks of Remodelin treatment, when cells reached Population Doubling 24 using the Senescence β-Galactosidase Staining Kit #9860 from Cell Signaling. Nocodazole, colchicine and latrunculin A (Sigma-Aldrich) were used at 200 ng/ml, 1 μg/ml and 1 μM respectively. Aphidicolin (Sigma-Aldrich) was used at 5 μg/ml for 16 h. Farnesyltransferase inhibitor FTI-277 was purchased from Tocris Bioscience and used at 5 μM. ATMi (KU55933) and ATRi (ATR-45) were obtained from Tocris Bioscience and from the Ohio State University respectively and used at 10 μM and 500 nM. Pifithrin alpha (Sigma-Aldrich) was used at 10 μM.

[6] = test system: farnesyltransferase activity (pre-Lamin A cleavage and maturation); test: Lamin A processing by western blotting; format: cell-based, human
Method: as §1, with “Nocodazole, colchicine and latrunculin A (Sigma-Aldrich) were used at 200 ng/ml, 1 μg/ml and 1 μM respectively. Aphidicolin (Sigma-Aldrich) was used at 5 μg/ml for 16 h. Farnesyltransferase inhibitor FTI-277 was purchased from Tocris Bioscience and used at 5 μM. ATMi (KU55933) and ATRi (ATR-45) were obtained from Tocris Bioscience and from the Ohio State University respectively and used at 10 μM and 500 nM. Pifithrin alpha (Sigma-Aldrich) was used at 10 μM.” left out
Total cell extracts were prepared by scraping cells in SDS lysis buffer (4% SDS, 20% glycerol, and 120 mM Tris-HCl, pH 6.8), boiling for 5 minutes at 95° C., followed by 10 strokes through a 25-gauge needle. […] Detection and quantification was performed with an imager (Odyssey; LI-COR Biosciences).

[7] = test system: HGPS cells; test: Proliferation assay of HGPS cells (IncuCyte); format: cell-based, human; conditions: Remodelin 1 μM
Method: HGPS cells were plated at the same number in 24 well dishes. Next day, Remodelin (1 μM) or small molecule Compound 2 (1 to 10 μM), were added to the wells and plates were transferred into an IncuCyte microscope (Essen BioScience). Phase contrast pictures were acquired every 2 hours over several days. Percentage of cell confluence was calculated by the Cell Player integrated software (Essen BioScience) and analysed with GraphPad Prism® software.

Row | SMILES | compound concentration in heart and muscles [1] | tubulin acetylation levels [2] | misshapen nuclei of aged MRC5 cells [3] | nuclear shape of normal cells ([4]; cells that do not express Progerin) | FTI-induced nuclear shape defects ([4]; normal fibroblasts co-treated with FTI) | long-term senescence of HGPS cells ([5]; 1 μM Remodelin, several weeks, 12 cell divisions (PDL 24)) | senescence of HGPS cells (β-galactosidase positive cells) ([5]; HGPS AG11498, Remodelin 1 μM, Pifithrin alpha 10 μM) | pre-Lamin A processing [6] | cell proliferation of HGPS cells [7]
1 | Clc1ccc(-c2csc(NN=C3CCCC3)n2)cc1 [Compound 2, 4-(4-Chlorophenyl)-2-(2-cyclopentylidenehydrazinyl)thiazole Hydrochloride Salt] | very high concentration of the compound in both heart and muscles | decrease of tubulin acetylation levels |  |  |  |  |  |  | 
2 | N#Cc1ccc(-c2csc(NN=C3CCCC3)n2)cc1 [Compound 1, 4-(4-Cyanophenyl)-2-(2-cyclopentylidenehydrazinyl)thiazole] |  |  | also had this effect on primary MRC5 fibroblasts aged in culture | did not induce nuclear shape defects in normal human fibroblasts | prevented FTI-induced nuclear shape defects | prevented HGPS cell senescence even after several weeks of treatment | decreased senescence | did not block pre-Lamin A cleavage and maturation | enhanced cell proliferation capacity
